Source: article PMC5568477 (Bioorganic & medicinal chemistry letters, 2017)

molecular target: T1, olfactomedin domain of human myocilin (myoc-OLF) (Homo sapiens, UniProt Q99972); experiment: Thermal shift assay by differential scanning fluorimetry; type: binding; conditions: not given
T1 sequence (Q99972 244-503 limits assumed): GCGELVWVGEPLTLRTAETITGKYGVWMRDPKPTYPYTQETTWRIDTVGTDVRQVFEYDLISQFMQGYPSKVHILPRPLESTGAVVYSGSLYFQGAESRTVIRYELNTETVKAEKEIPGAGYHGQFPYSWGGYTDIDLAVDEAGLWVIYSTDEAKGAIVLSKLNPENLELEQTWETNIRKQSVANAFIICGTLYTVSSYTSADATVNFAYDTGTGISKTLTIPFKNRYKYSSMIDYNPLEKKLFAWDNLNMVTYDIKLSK

SMILES	Kd [µM]
Cc1cc(N(CCCl)CCCl)ccc1/C=N/NC(=O)Cc1cc(=O)oc2cc(O)ccc12 [NSC79688]	2

same assay, conditions: initial round of screening; DSF, 5 μM protein; protein alone Tm 49.83

SMILES	Tm [°C]
CN(C)c1ccc(/C=C/C(=O)c2cc(Cl)ccc2O)cc1 [NSC11437]	51.33
COc1cc(C(=O)C(=O)c2ccc(O)c(OC)c2)ccc1O [NSC16722]	50.74
O=C(/C=C/c1ccc(O)c(O)c1)c1ccccc1O [NSC37433]	66.27
Cc1cc(N(CCCl)CCCl)ccc1/C=N/NC(=O)Cc1cc(=O)oc2cc(O)ccc12 [NSC79688]	51.43
O=C(Cn1ccc(=O)[nH]c1=O)Nc1ccc(C(=O)O)c(O)c1 [NSC93033]	51.49
Nc1nc(N)c(/N=N/c2ccc(C(=O)O)cc2)c(N)n1 [NSC408734]	51.61
O=C1c2ccccc2C(=O)C1C(c1ccc([N+](=O)[O-])cc1)C1C(=O)c2ccccc2C1=O [NSC643148]	51.85

same assay, conditions: second round best hit vs NSC37433

SMILES	increase in the affinity compared to the best hit from the initial round (NSC37433)
COc1cccc(NC(S)=Nc2ccc(O)cc2)c1 [NSC201634]	~ 10,000 fold

same assay, conditions: second round of screening, seeded with NSC37433

SMILES	Tm [°C]
Cc1ccc(C(C)C)cc1NC(=O)Nc1ccc([N+](=O)[O-])cc1 [NSC46492]	57.96
O=C(Nc1ccc(Oc2ccc(NC(=O)Nc3ccc([N+](=O)[O-])cc3)cc2)cc1)Nc1ccc([N+](=O)[O-])cc1 [NSC80735]	62.86
COc1cccc(NC(S)=Nc2ccc(O)cc2)c1 [NSC201634]	83.79
